In paper PMC5328659 (Journal of clinical toxicology, 2016):

Key:
[1] = test system: mice; format: in vivo, mice (Swiss Webster)
[2] = cited from earlier work
[3] = DZP quantification in plasma and brain by LC/MS; format: in vivo, mice; settings: TPPU 3 mg/kg i.p., DZP 10 mg/kg
[4] = test system: murine sEH; settings: read-out: IC50 for murine sEH; cited from earlier work
[5] = test system: soluble epoxide hydrolase (sEH); settings: mice treated with DZP 10 mg/kg and TPPU 3 mg/kg
[6] = TPPU quantification in plasma and brain by LC/MS/MS; format: in vivo, mice
[7] = 50 min after TPPU 3 mg/kg i.p. (5 min after DZP)
[8] = 105 min after TPPU 3 mg/kg i.p. (1 h after DZP)
[9] = midazolam 1.8 and 10 mg/kg intramuscular

## CN1C(=O)CN=C(c2ccccc2)c2cc(Cl)ccc21 [DZP, diazepam]
[1]; DZP 1 mg/kg i.p.
  Decrease of SBP from baseline: 10–20%
  Recovery time from hypotension: 10 min
[1]; DZP 1, 3, 10 mg/kg i.p.
  Hypotensive effect on BP, dose dependence: led to hypotension in mice in a dose dependent manner
[1]; DZP 3 and 10 mg/kg i.p.
  BP recovery at 24 h post treatment: full recovery at 24 h post treatment
  BP versus baseline at 5 and 6 h post DZP: BP was still below baseline

## CCC(=O)N1CCC(NC(=O)Nc2ccc(OC(F)(F)F)cc2)CC1 [TPPU]
[2]
  Blood brain barrier penetration (saline perfused mouse brain): […]
[2]; i.p. or oral administration
  Plasma elimination half-life: […]
[3]
  Effect of TPPU co-administration on plasma and brain levels of DZP: […]
[4]
  IC50: […]
[1]; TPPU 3 mg/kg i.p. before DZP
  Time after DZP administration of maximal reversal of SBP with TPPU: […]
[1]; TPPU 3 mg/kg i.p. before DZP 3 and 10 mg/kg
  Effect of TPPU on sudden drop in BP 5 min after DZP: did not prevent the sudden drop in BP
[1]; TPPU 3 mg/kg i.p. before DZP, P < 0.001
  Recovery from DZP hypotension with TPPU versus DZP alone: recovered significantly faster from hypotension
[1]; TPPU 3 mg/kg i.p., DZP 1 mg/kg
  Efficacy of TPPU against hypotension at lowest DZP dose: least effective
[1]; TPPU 3 mg/kg i.p., P < 0.05
  AUC of BP-time course, DZP plus TPPU versus DZP alone: significantly higher
[1]; TPPU 3 mg/kg i.p., P = 0.56
  Change in BP by TPPU alone or with DZP vehicle (without DZP): did not elicit any significant changes
[1]; TPPU 3 mg/kg i.p., midazolam 1.8 and 10 mg/kg, P = 0.004 at […]
  Efficacy of TPPU against midazolam induced hypotension: effective only when administered with the low dose of midazolam
[5]
  Increase of plasma EETs and EpOMEs: […]
[6]; [7]
  [TPPU] Brain: 32.8 ± 3.4 µM
  [TPPU] Plasma: 11.8 ± 0.6 µM
[6]; [8]
  [TPPU] Brain: […]
  [TPPU] Plasma: […]

## Cc1ncc2n1-c1ccc(Cl)cc1C(c1ccccc1F)=NC2 [midazolam]
[1]; [9]
  Hypotensive effect on BP: significant hypotension at both doses
  Time of recovery from hypotension after administration: 1 to 2 h
